Results taken from PMC12333940, “A prometabolite strategy inhibits cardiometabolic disease in an ApoE^–/– murine model of atherosclerosis” (JCI Insight, 2025).
Where “and” joins values, the source holds several entries; their conditions need not be identical. Equal entries are not always repeated.

What was measured:
RAW 264.7 macrophages = test: Flow cytometry of iNOS, CD80, CD86 in LPS-stimulated RAW 264.7; format: cell-based; conditions: for CD80 MFI / iNOS MFI: then LPS 6 h; for CD80+ % Live / CD86+ % Live / iNOS+ %Live: listed as NB;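 on CD80 MFI: LPS 200 ng/mL for 6 h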;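 on iNOS MFI: LPS 200 ng/mL for 6 h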
Method: RAW 264.7 (ATCC, TIB-71) macrophages were cultured at 37°C and 5% CO2 in DMEM (Gibco) supplemented with 1 mM HEPES, 1 mM sodium pyruvate, 10% FBS, and penicillin/streptomycin. Cells were plated in round-bottom 96-well plates at 100,000 cells per well and incubated with different concentrations of either NaBut or SerBut (0.15–12 mM) for 24 hours. […] The cell culture supernatant was collected and analyzed by LEGENDPlex to analyze the concentrations of cytokines (BioLegend). Cell phenotype was analyzed using flow cytometry (Cytek Aurora).
Flow cytometry was performed using a BD LSRFortessa or a Cytek Aurora full-spectrum cytometer. Data were analyzed using FlowJo version 10.8.0. eFluor 780 Viability Dye (Invitrogen, 65-0865-14) and antibodies against the following markers were used in the RAW 264.7 macrophage in vitro studies: CD86 (BV421; BD Horizon, catalog 564198), CD80 (BC650; BioLegend, clone 16-10A1, catalog 104732), and iNOS (APC; Invitrogen, clone CXNFT, catalog 17-5920-9). Live/Dead Blue (Invitrogen, 123105A) and antibodies against the following markers were used in the atherosclerosis mouse models: F4/80 (FITC; BioLegend, clone BM8, catalog 123108), CD3e (BV605; BD Biosciences, clone 145-2C11, catalog 563565), CD4 (BUV496; BD Biosciences, clone GK 1.5, catalog 612952), RORγt (AF647; BD Biosciences, clone Q31-378, catalog 562682), FoxP3 (AF488, BD Biosciences, clone MF23, catalog 560403), CCR2 (PE; R&D Systems, catalog FAB5538P), Ly6C (APC-Cy7; BioLegend, catalog 128026, clone HK1.4), Ly6G (AF488; BioLegend, catalog 127626), CD8 (APC-Cy7; BioLegend, clone 53-6.7, catalog 100714), CD45 (BUV805; Invitrogen, clone 30-F11, catalog 368-0451-82), and CD25 (PerCP-Cy5.5; BioLegend, clone PC61, catalog 102030).

ApoE^–/– mice on an HFD [1] = test: Flow cytometry of blood, lymph nodes and spleen; format: in vivo, mouse; design: Treg / Th17 / F480+CD11b+ Macrophages / iNOS+ Macs / Arg1+ Macs: unit not given here
Method: SerBut water was pH adjusted using 10 M NaOH to a final pH of 7.4. […] After 6 weeks, mice were euthanized. The lMLNs, ILNs, spleen, heart, and aorta were harvested and processed for flow cytometry analysis ([67]). […] The remaining liver was fixed with 4% paraformaldehyde and embedded in paraffin for histological analysis.
Flow cytometry was performed using a BD LSRFortessa or a Cytek Aurora full-spectrum cytometer.

ApoE^–/– mice on an HFD [2] = test: Histological grading and scoring of livers; format: in vivo, mouse; design: key to Liver Grading and Staging: Lobular inflammation (CD3+): one focus in which more than 10 periductal CD3^+ lymphocytes are found in an ×200 field; 2 to 5 instances of more than 10 periductal CD3^+ immune cells in an ×200 field; 3: Any sample exceeding this threshold
Method: For 6 weeks, mice were freely administered water, water containing 150 mM SerBut, or water containing an equimolar amount of NaBut. SerBut water was pH adjusted using 10 M NaOH to a final pH of 7.4. […] In concert, mice were fed an HFD with 42% from fat and 0.2% total cholesterol (Envigo, TD-88137) ad libitum. After 6 weeks, mice were euthanized. The lMLNs, ILNs, spleen, heart, and aorta were harvested and processed for flow cytometry analysis ([67]). The liver was harvested and part was homogenized in tissue protein extraction reagent buffer (Invitrogen, 78510) supplemented with protease inhibitor mini tablets (Thermo Fisher Scientific, PIA32955) for Western blotting and qPCR. The remaining liver was fixed with 4% paraformaldehyde and embedded in paraffin for histological analysis.
Sections (8 μm thick) were stained. Digital image files were created with an Olympus VS200 Research Slide Scanner (Olympus/Evident) with a Hamamatsu ORca-Fusion camera (Hamamatsu Photonics) at ×40 magnification. Individual images were created with the OlyVIA Viewer software (Olympus/Evident). Scoring and grading was performed by a pathologist as previously described ([48]). Immunohistochemistry grading was informed by age-matched WT controls. In age-matched WT controls, CD3^+ immune cells were seen scattered without distinct aggregate formation nor associated tissue reaction. In an ×400 field, we observed up to 25 CD3^+ immune cells scattered in an even distribution, with rare events of up to 10 periductal CD3^+ immune cells but with no associated ductal or parenchymal reaction. […] Furthermore, a score of 2 corresponds to 2 to 5 instances of more than 10 periductal CD3^+ immune cells in an ×200 field. Any sample exceeding this threshold was scored a 3.

[3] = 0.45 mM, 12 Hour LPS stim after Butyrate treament
[4] = 0.45 mM, 12 hour LPS stim before butyrate treatment
[5] = 1.3 mM, 12 Hour LPS stim after Butyrate treament
[6] = 1.3 mM, 12 hour LPS stim before butyrate treatment
[7] = Inguinal Lymph Node Flow, individual mice
[8] = Mesenteric Lymph Node Flow, individual mice
[9] = liver, individual mice, 150 mM ad libitum for 6 weeks, HFD

## CCCC(=O)[O-].[Na+] [NaBut, sodium butyrate, reference compound]
RAW 264.7 macrophages; 0.15 mM 24 h
  CD80 MFI: 22618 and 22070 and 22276
  iNOS MFI: 132178 and 120454 and 127565
RAW 264.7 macrophages; 0.45 mM 24 h
  CD80 MFI: 22987 and 22543 and 22840
  iNOS MFI: 139940 and 135604 and 131383
RAW 264.7 macrophages; [3]
  CD80+ % Live: 31.4% and 45.9% and 36.7%
  CD86+ % Live: 10.9% and 12.8% and 11.6%
  iNOS+ %Live: 72.8% and 94.5% and 85.8%
RAW 264.7 macrophages; [4]
  CD80+ % Live: 55.4% and 59.7% and 52.7%
  CD86+ % Live: 16.4% and 16% and 15.5%
  iNOS+ %Live: 39.7% and 50% and 39.3%
RAW 264.7 macrophages; 1.3 mM 24 h
  CD80 MFI: 22932 and 22915 and 22360
  iNOS MFI: 123416 and 155157 and 124806
RAW 264.7 macrophages; [5]
  CD80+ % Live: 40.8% and 54.3% and 32.8%
  CD86+ % Live: 22.7% and 26% and 18.7%
  iNOS+ %Live: 66.2% and 87.1% and 52%
RAW 264.7 macrophages; [6]
  CD80+ % Live: 47.8% and 46.8% and 51.4%
  CD86+ % Live: 16.7% and 17.4% and 18.3%
  iNOS+ %Live: 31.6% and 29.4% and 31.8%
ApoE^–/– mice on an HFD [1]; [7]
  Arg1+ Macs: 1.5 and 2.34 and 2.81 and 2.38
  F480+CD11b+ Macrophages: 0.62 and 0.34 and 0.21 and 0.27
  Th17: 4.92 and 5.5 and 5.4 and 13 and 8.24 and 3.69 and 4.14 and 8.43 and 4.57 and 3.89
  Th17/Treg: 0.4278 and 0.4365 and 0.4463 and 1.161 and 0.7423 and 0.2976 and 0.345 and 0.4153 and 0.3288 and 0.2701
  Treg: 11.5 and 12.6 and 12.1 and 11.2 and 11.1 and 12.4 and 12 and 20.3 and 13.9 and 14.4
  iNOS+ Macs: 2.2 and 5.7 and 2.33 and 5.26
ApoE^–/– mice on an HFD [1]; [8]
  Arg1+ Macs: 1.44 and 1.98 and 1.72 and 1.71
  F480+CD11b+ Macrophages: 11.6 and 5.7 and 6.38 and 10.4
  Th17: 11.7 and 14.4 and 12.2 and 12.1 and 11.3 and 18.4 and 15.3
  Th17/Treg: 1.054 and 1.385 and 0.8652 and 1.008 and 0.8968 and 1.108 and 0.8895
  Treg: 11.1 and 10.4 and 14.1 and 12 and 12.6 and 16.6 and 17.2
  iNOS+ Macs: 2.42 and 0.43 and 0.69 and 0.94
ApoE^–/– mice on an HFD [1]; Spleen Flow, individual mice
  Th17: 1.11 and 0.85 and 1.17 and 1.19 and 1.09 and 1.43 and 1.41 and 1.08 and 1.22 and 0.97
  Th17/Treg: 0.1535 and 0.1111 and 0.1425 and 0.1357 and 0.131 and 0.1783 and 0.1653 and 0.135 and 0.1432 and 0.1325
  Treg: 7.23 and 7.65 and 8.21 and 8.77 and 8.32 and 8.02 and 8.53 and 8 and 8.52 and 7.32
ApoE^–/– mice on an HFD [1]; blood, individual mice
  Blood Neutrophils: CD11b+Ly6G+ %CD45: 7.65 %CD45 and 9.07 %CD45 and 17.4 %CD45 and 8.36 %CD45 and 14.3 %CD45 and 19.3 %CD45 and 20.8 %CD45 and 17.3 %CD45 and 19.5 %CD45 and 14.8 %CD45 and 22.8 %CD45 and 4.26 %CD45 and 16.8 %CD45
ApoE^–/– mice on an HFD [1]; spleen
  Th17/Treg cell ratio: lower Th17/Treg cell ratio
ApoE^–/– mice on an HFD [2]; 6 weeks
  CD3^+ immune cell infiltration into the livers, lobular inflammation: Neither SerBut nor NaBut significantly reduced
  hepatocellular nuclear hypertrophy: suppressed
ApoE^–/– mice on an HFD [2]; [9]
  Liver Grading and Staging: Balooning Grade, Hypertrophy: 2 and 1
  Liver Grading and Staging: Lobular inflammation (CD3+): 1 and 2 and 3 and 0
  Liver Grading and Staging: Steatosis Grade, Macro fat: 1 and 2
  NAS score (steatosis, inflammation, Ballooning): 4 and 5 and 6 and 3 and 2
